According to ChEMBL document CHEMBL1150976, “The selectivity of protein kinase inhibitors: a further update” (Biochem J, 2007):

Assays:
[1] = molecular target: Serine/threonine-protein kinase Chk2 (Homo sapiens) (UniProt O96017); experiment: Percentage CHK2 activity remaining in the presence of 3uM inhibitor
[2] = molecular target: T1, Eukaryotic elongation factor 2 kinase (Homo sapiens) (UniProt O00418); experiment: Percentage EF2K activity remaining in the presence of 3uM inhibitor
T1 sequence (whole entry): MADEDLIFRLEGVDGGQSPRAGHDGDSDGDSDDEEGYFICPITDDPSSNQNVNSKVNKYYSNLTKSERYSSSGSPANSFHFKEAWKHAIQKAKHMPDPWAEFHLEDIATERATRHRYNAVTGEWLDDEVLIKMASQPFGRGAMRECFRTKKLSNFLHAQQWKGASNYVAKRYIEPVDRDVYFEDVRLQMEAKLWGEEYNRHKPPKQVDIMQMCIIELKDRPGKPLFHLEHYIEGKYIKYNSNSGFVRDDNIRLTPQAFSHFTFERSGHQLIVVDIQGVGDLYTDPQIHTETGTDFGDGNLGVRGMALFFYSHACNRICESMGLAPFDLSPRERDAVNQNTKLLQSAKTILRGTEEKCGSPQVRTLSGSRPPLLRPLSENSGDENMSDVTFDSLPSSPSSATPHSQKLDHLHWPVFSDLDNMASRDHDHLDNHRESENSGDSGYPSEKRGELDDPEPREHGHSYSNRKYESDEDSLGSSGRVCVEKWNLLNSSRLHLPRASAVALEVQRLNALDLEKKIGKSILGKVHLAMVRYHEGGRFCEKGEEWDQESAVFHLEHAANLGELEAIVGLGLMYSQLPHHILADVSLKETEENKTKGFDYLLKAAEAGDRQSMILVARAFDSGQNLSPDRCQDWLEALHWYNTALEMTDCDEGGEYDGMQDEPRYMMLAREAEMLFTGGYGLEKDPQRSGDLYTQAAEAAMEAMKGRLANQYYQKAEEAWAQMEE

[3] = molecular target: Protein kinase C alpha type (Homo sapiens) (UniProt P17252); experiment: Percentage PKCalpha activity remaining in the presence of 3uM inhibitor
[4] = molecular target: T2, Serine/threonine-protein kinase D1 (Homo sapiens) (UniProt Q15139); experiment: Percentage PKD1 activity remaining in the presence of 2uM inhibitor
T2 sequence (whole entry): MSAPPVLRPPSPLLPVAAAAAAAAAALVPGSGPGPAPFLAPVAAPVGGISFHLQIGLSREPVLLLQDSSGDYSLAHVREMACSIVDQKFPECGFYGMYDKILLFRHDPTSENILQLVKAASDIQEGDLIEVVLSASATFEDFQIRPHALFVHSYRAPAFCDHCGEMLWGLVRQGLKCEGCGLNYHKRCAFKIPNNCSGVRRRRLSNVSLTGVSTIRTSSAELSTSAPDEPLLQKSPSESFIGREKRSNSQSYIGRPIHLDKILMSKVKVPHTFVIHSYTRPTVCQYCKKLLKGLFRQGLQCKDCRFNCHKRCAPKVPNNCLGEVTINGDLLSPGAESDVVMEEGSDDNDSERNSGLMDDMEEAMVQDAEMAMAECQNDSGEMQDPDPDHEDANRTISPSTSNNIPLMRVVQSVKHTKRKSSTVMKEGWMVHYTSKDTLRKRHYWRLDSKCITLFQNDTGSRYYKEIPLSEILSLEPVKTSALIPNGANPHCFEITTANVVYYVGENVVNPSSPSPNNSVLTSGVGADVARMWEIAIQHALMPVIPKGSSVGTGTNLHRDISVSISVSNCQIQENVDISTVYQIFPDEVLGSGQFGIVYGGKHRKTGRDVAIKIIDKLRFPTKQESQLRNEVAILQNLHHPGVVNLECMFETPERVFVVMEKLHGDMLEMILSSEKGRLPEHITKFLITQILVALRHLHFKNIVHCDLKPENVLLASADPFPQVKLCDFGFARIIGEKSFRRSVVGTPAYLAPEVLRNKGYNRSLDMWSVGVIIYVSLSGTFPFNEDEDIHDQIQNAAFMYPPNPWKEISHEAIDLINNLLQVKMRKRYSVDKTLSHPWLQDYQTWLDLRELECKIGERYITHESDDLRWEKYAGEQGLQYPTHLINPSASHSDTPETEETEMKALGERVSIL

[5] = molecular target: T3, Serine/threonine-protein kinase Chk1 (Homo sapiens) (UniProt O14757); experiment: Percentage CHK1 activity remaining in the presence of 2uM inhibitor
T3 sequence (whole entry): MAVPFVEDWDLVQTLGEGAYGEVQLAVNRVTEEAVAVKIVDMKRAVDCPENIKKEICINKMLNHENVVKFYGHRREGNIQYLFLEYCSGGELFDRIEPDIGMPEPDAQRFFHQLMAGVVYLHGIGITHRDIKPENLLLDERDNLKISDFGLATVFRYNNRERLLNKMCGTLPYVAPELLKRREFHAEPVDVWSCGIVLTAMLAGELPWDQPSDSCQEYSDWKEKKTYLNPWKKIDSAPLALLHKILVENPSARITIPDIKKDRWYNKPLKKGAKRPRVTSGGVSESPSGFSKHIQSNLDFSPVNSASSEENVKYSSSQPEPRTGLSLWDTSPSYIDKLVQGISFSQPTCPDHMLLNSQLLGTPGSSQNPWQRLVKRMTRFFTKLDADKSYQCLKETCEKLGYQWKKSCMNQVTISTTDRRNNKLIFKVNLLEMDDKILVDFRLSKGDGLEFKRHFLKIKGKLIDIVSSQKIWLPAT

[6] = molecular target: T4, Serine/threonine-protein kinase Nek2 (Homo sapiens) (UniProt P51955); experiment: Percentage NEK2a activity remaining in the presence of 2uM inhibitor
T4 sequence (whole entry): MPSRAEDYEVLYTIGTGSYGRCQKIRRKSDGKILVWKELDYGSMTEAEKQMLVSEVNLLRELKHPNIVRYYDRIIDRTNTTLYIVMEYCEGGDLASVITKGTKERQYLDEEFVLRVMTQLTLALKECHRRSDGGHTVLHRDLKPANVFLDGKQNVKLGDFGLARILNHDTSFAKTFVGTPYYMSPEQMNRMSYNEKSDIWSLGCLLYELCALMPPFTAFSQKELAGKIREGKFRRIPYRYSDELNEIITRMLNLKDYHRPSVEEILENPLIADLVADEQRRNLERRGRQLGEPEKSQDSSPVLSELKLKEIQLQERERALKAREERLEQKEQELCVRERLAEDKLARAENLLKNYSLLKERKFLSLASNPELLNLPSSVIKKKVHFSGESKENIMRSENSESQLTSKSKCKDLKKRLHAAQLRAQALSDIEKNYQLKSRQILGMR

Chain of Serine/threonine-protein kinase Chk2 (Homo sapiens) (O96017 whole entry): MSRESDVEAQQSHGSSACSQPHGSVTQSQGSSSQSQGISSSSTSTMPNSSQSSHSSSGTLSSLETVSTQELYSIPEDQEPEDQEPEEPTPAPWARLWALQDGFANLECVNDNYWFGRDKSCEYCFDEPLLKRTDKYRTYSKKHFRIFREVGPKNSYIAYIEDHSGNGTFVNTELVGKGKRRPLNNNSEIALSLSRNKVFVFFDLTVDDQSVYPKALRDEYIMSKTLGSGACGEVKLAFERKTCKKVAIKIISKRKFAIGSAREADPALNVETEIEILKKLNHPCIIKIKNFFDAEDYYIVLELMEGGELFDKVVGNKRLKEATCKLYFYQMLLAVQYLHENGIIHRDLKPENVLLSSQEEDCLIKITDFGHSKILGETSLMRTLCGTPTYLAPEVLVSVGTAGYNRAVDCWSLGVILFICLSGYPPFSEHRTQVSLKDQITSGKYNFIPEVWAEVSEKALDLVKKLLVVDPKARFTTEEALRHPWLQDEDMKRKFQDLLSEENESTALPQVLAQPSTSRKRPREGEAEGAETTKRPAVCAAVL

Activity [1] | Activity [2] | Activity [3] | Activity [4] | Activity [5] | Activity [6] | SMILES
81% | 97% | 85% |  |  |  | Cc1ccc(-c2c(C(=O)CF)n(CCCO)c3ncnc(N)c23)cc1
 |  |  | 100% | 87% | 74% | Cn1cc(C2=C(c3ccc(Cl)cc3Cl)C(=O)NC2=O)c2ccccc21
